According to the NIST ThermoML archive (doi:10.1021/je301353z):
Numbers after ± are expanded uncertainties.

Tests used:
[1] = 101.33 kPa, Liquid; for speed of sound: Sing-around technique in a fixed-path interferometer; for mass density: Vibrating tube method
[2] = molar heat capacity at constant pressure; settings: 101.33 kPa, Liquid, Small sample (50 mg) DSC

Structure (SMILES) | speed of sound ([1]; 293.15 K) | mass density ([1]; 293.15 K) | speed of sound ([1]; 298.15 K) | mass density ([1]; 298.15 K) | speed of sound ([1]; 303.15 K) | mass density ([1]; 303.15 K) | speed of sound ([1]; 308.15 K) | mass density ([1]; 308.15 K) | molar heat capacity at constant pressure ([2]; 293.15 K) | molar heat capacity at constant pressure ([2]; 298.15 K) | molar heat capacity at constant pressure ([2]; 303.15 K) | molar heat capacity at constant pressure ([2]; 308.15 K)
CCn1cc[n+](C)c1.F[B-](F)(F)F [1-ethyl-3-methylimidazolium tetrafluoroborate] | 1631 ± 2.1 m/s | 1283.89 ± 1.7 kg/m3 | 1619.4 ± 2.1 m/s | 1279.91 ± 1.7 kg/m3 | 1607.6 ± 2.1 m/s | 1276.26 ± 1.7 kg/m3 | 1596.3 ± 2.1 m/s | 1272.07 ± 1.7 kg/m3 | 303.41 ± 4.7 J/K/mol | 305.12 ± 4.7 J/K/mol | 306.81 ± 4.8 J/K/mol | 308.58 ± 4.8 J/K/mol
O=C1CCCN1 [2-pyrrolidinone] | 1650.1 ± 1.3 m/s | 1111.28 ± 1 kg/m3 | 1633.9 ± 1.3 m/s | 1107.15 ± 1 kg/m3 | 1617.1 ± 1.3 m/s | 1103.02 ± 1 kg/m3 | 1601.8 ± 1.3 m/s | 1098.9 ± 1 kg/m3 | 168.36 ± 2.6 J/K/mol | 169.55 ± 2.6 J/K/mol | 171.18 ± 2.6 J/K/mol | 172.37 ± 2.7 J/K/mol
CN1CCCC1=O [N-methylpyrrolidone] | 1565.5 ± 1.3 m/s | 1033.23 ± 1 kg/m3 | 1546 ± 1.2 m/s | 1028.23 ± 1 kg/m3 | 1527.2 ± 1.2 m/s | 1023.46 ± 1 kg/m3 | 1507.4 ± 1.2 m/s | 1018.66 ± 1 kg/m3 | 165.44 ± 2.6 J/K/mol | 166.22 ± 2.6 J/K/mol | 166.92 ± 2.6 J/K/mol | 167.21 ± 2.6 J/K/mol
c1ccncc1 [pyridine] | 1442 ± 1.2 m/s | 983.195 ± 1 kg/m3 | 1417.8 ± 1.2 m/s | 978.252 ± 1 kg/m3 | 1398 ± 1.2 m/s | 973.228 ± 1 kg/m3 | 1377.1 ± 1.2 m/s | 968.171 ± 1 kg/m3 | 130.49 ± 2 J/K/mol | 131.74 ± 2 J/K/mol | 132.71 ± 2.1 J/K/mol | 133.82 ± 2.1 J/K/mol
